Assay results from patent publication US20250101436A1, “APTAMERS AND SMALL MOLECULE LIGANDS” (MeiraGTx UK II Limited, priority 2021, published 2025).

system: luciferase gene expression in HEK 293 cells in response to Comp. 004; test: Screen of riboswitch constructs with 12C6-1 variant aptamers (libraries N1-N5) against Comp. 004, luciferase in HEK 293 cells; type: cell-based, human; conditions: library N1 (J2-4), HEK 293, 25 M [sic] Comp. 004
Text: Cloning of riboswitch constructs containing 12C6-1 variant aptamer sequences: 12C6-1 aptamer sequence was used as template, and nucleobases were randomized at certain position in the sequence. Aptamers incorporating random mutagenesis were synthesized by Integrated DNA Technologies, Inc. Golden Gate cloning strategy (New England Biolabs, NEB) was used to clone the synthesized aptamer sequences into intron-exon-intron cassette to replace the 12C6-1 aptamer in the Luci-12C6-1 riboswitch construct, generating riboswitch constructs containing variant aptamer sequences.
To further improve the riboswitch activity in responding to Comp. 004 and related compounds, the aptamer sequence 12C6-1 was subject to mutagenesis to generate aptamer variants, and the riboswitches containing the variant aptamers were screened against Comp. 004 for the ones that have improved dynamic range of induced gene expression (the fold induction), in comparison with the fold induction by parental riboswitch construct Luci-12C6-1. […] These loop or junction region alone or together with stem region in proximity were chosen for random mutagenesis to generate riboswitches with re-engineered aptamer sequences with improved activity.
Five aptamer libraries N1, N2, N3, N4 and N5 were generated by randomizing nucleotides at positions in J2-4, J2-3/J3-3a/J3a-2/P3, L3a, J4-5/J5-4/P4 and L5 regions of the parent 12C6-1 sequence, respectively (see FIGS. 3a and 3b). Single bacterial colonies were picked and plasmids containing variant riboswitch constructs were screened in HEK 293 cells for improved gene regulation activity in response to 25 µM Comp. 004 as compared to parent riboswitch construct Luci-12C6-1.

Substance | Fold (induction of luciferase gene expression) [fold]
N1_2F11 (CTGGGGAGTCCTTCATGCGGGGC; chemistry not given here) | 150.18
N1_2F12 (CTGGGGAGTCCTTCATGCGGGGC; chemistry not given here) | 1.83
N1_2G1 (CTGGGGAGTCCTTCATGCGGGGC; chemistry not given here) | 100.11
N1_2G3 (CTGGGGAGTCCTTCATGCGGGGC; chemistry not given here) | 36.58
N1_2G4 (CTGGGGAGTCCTTCATGCGGGGC; chemistry not given here) | 9.06
N1_2G6 (CTGGGGAGTCCTTCATGCGGGGC; chemistry not given here) | 11.00
N1_2G7 (CTGGGGAGTCCTTCATGCGGGGC; chemistry not given here) | 2.06
N1_2G8 (CTGGGGAGTCCTTCATGCGGGGC; chemistry not given here) | 8.46
N1_2G9 (CTGGGGAGTCCTTCATGCGGGGC; chemistry not given here) | 30.93
N1_2G10 (CTGGGGAGTCCTTCATGCGGGGC; chemistry not given here) | 4.40
N1_2H1 (CTGGGGAGTCCTTCATGCGGGGC; chemistry not given here) | 9.41
N1_2H2 (CTGGGGAGTCCTTCATGCGGGGC; chemistry not given here) | 2.85
N1_2H5 (CTGGGGAGTCCTTCATGCGGGGC; chemistry not given here) | 1.62
N1_2H7 (CTGGGGAGTCCTTCATGCGGGGC; chemistry not given here) | 1.16
N1_2H8 (CTGGGGAGTCCTTCATGCGGGGC; chemistry not given here) | 1.45
N1_2H9 (CTGGGGAGTCCTTCATGCGGGGC; chemistry not given here) | 1.91
N1_2H10 (CTGGGGAGTCCTTCATGCGGGGC; chemistry not given here) | 16.82
N1_2H11 (CTGGGGAGTCCTTCATGCGGGGC; chemistry not given here) | 2.83

same assay, conditions: library N2 variant aptamers (J2-3, P3-J3-3a, J3a-2 randomized) of 12C6-1 in riboswitch constructs; in response to Comp. 004; HEK 293 cells

Substance | Fold (induction of luciferase gene expression) [fold]
N2_2A1 (CTGGGGAGTCCTTCATGC; chemistry not given here) | 1.0
N2_2A2 (CTGGGGAGTCCTTCATGC; chemistry not given here) | 0.7
N2_2A3 (CTGGGGAGTCCTTCATGC; chemistry not given here) | 0.8
N2_2A5 (CTGGGGAGTCCTTCATGC; chemistry not given here) | 1.0
N2_2A6 (CTGGGGAGTCCTTCATGC; chemistry not given here) | 1.2
N2_2A7 (CTGGGGAGTCCTTCATGC; chemistry not given here) | 0.9
N2_2A8 (CTGGGGAGTCCTTCATGC; chemistry not given here) | 1.0
N2_2A9 (CTGGGGAGTCCTTCATGC; chemistry not given here) | 1.1
N2_2A10 (CTGGGGAGTCCTTCATGC; chemistry not given here) | 1.1
N2_2A11 (CTGGGGAGTCCTTCATGC; chemistry not given here) | 1.1
N2_2A12 (CTGGGGAGTCCTTCATGC; chemistry not given here) | 1.1
N2_2B1 (CTGGGGAGTCCTTCATGC; chemistry not given here) | 1.0
N2_2B3 (CTGGGGAGTCCTTCATGC; chemistry not given here) | 1.2
N2_2B4 (CTGGGGAGTCCTTCATGC; chemistry not given here) | 0.8
N2_2B5 (CTGGGGAGTCCTTCATGC; chemistry not given here) | 1.0
N2_2B6 (CTGGGGAGTCCTTCATGC; chemistry not given here) | 0.8
N2_2B7 (CTGGGGAGTCCTTCATGC; chemistry not given here) | 1.2
N2_2B8 (CTGGGGAGTCCTTCATGC; chemistry not given here) | 1.1
N2_2B9 (CTGGGGAGTCCTTCATGC; chemistry not given here) | 1.1
N2_2B10 (CTGGGGAGTCCTTCATGC; chemistry not given here) | 1.1
N2_2B11 (CTGGGGAGTCCTTCATGC; chemistry not given here) | 1.2
N2_2B12 (CTGGGGAGTCCTTCATGC; chemistry not given here) | 1.0

Substance | Fold (induction of luciferase gene expression) [fold]
N2_2C1 (CTGGGGAGTCCTTCATGC; chemistry not given here) | 1.1
N2_2C2 (CTGGGGAGTCCTTCATGC; chemistry not given here) | 0.8
N2_2C3 (CTGGGGAGTCCTTCATGC; chemistry not given here) | 1.1
N2_2C4 (CTGGGGAGTCCTTCATGC; chemistry not given here) | 2.0
N2_2C5 (CTGGGGAGTCCTTCATGC; chemistry not given here) | 1.0
N2_2C6 (CTGGGGAGTCCTTCATGC; chemistry not given here) | 0.9
N2_2C7 (CTGGGGAGTCCTTCATGC; chemistry not given here) | 0.8
N2_2C8 (CTGGGGAGTCCTTCATGC; chemistry not given here) | 0.9
N2_2C9 (CTGGGGAGTCCTTCATGC; chemistry not given here) | 1.2
N2_2C10 (CTGGGGAGTCCTTCATGC; chemistry not given here) | 1.2
N2_2C12 (CTGGGGAGTCCTTCATGC; chemistry not given here) | 1.1
N2_2D1 (CTGGGGAGTCCTTCATGC; chemistry not given here) | 1.1
N2_2D2 (DNA CTGGGGAGTCCTTCATGC; chemistry not given here) | 1.1
N2_2D3 (DNA CTGGGGAGTCCTTCATGC; chemistry not given here) | 0.9
N2_2D4 (DNA CTGGGGAGTCCTTCATGC; chemistry not given here) | 0.8
N2_2D5 (DNA CTGGGGAGTCCTTCATGC; chemistry not given here) | 0.6
N2_2D6 (DNA CTGGGGAGTCCTTCATGC; chemistry not given here) | 1.1
N2_2D7 (DNA CTGGGGAGTCCTTCATGC; chemistry not given here) | 1.0
N2_2D8 (DNA CTGGGGAGTCCTTCATGC; chemistry not given here) | 1.1
N2_2D9 (DNA CTGGGGAGTCCTTCATGC; chemistry not given here) | 1.0
N2_2D10 (DNA CTGGGGAGTCCTTCATGC; chemistry not given here) | 1.2
N2_2D11 (DNA CTGGGGAGTCCTTCATGC; chemistry not given here) | 1.3
